How the values were obtained:
Bt-Chitinase = tested on: T1, Bt-Chitinase; test: fluorometric chitinase assay; format: biochemical, Bacillus thuringiensis serovar kurstaki; conditions: 50 mM sodium phosphate pH 7.0, 30 °C, 20 min; without Bt-CBP21; footnote gives substrate as 50 µM
T1 construct: EC 3.2.1.14
From the text: fluorometric chitinase assay on Bt-Chitinase

Ha-Chitinase = test: fluorometric chitinase assay; format: biochemical, Helicoverpa armigera; conditions: 50 mM sodium phosphate pH 7.0, 30 °C, 20 min; without Bt-CBP21; footnote gives substrate as 50 µM
From the text: fluorometric chitinase assay on Ha-Chitinase

## CC(=O)N[C@H]1[C@H](Oc2ccc3c(C)cc(=O)oc3c2)O[C@H](CO)[C@@H](O[C@@H]2O[C@H](CO)[C@@H](O)[C@H](O)[C@H]2NC(C)=O)[C@@H]1O [4-MU-(GlcNAc)2]
Bt-Chitinase
  Km: 30 µM
Ha-Chitinase
  Km: 1.4 µM
